Each compound was assayed against CDK2 (UniProt P24941) (assay: Enzyme Assay). Conditions: concentration not given here.

inhibition, 100%:
CC(=O)Nc1cccc(C(=O)Nc2sc(C(C)c3ccccc3)cc2C(N)=O)c1 (stereo unspecified)
CC(C)c1cc(C(N)=O)c(NC(=O)CCC2CCCC2)s1
CCCN(C(=O)/C=C\C(N)=O)c1sc(-c2ccccc2)cc1C(N)=O
Cc1ccc2[nH]c(C(=O)Nc3sc(C)c(C)c3C(N)=O)cc2c1
N#CC1(C(=O)Nc2sc3c(c2C(N)=O)CCCC3)CC1
Cc1sc(NC(=O)CNc2cccnc2)c(C(N)=O)c1C
Cc1ccccc1CC(=O)Nc1sc(C(C)C)cc1C(N)=O
NC(=O)c1c(NC(=O)c2cccnc2)sc2c1CCCC2
NC(=O)c1c(NC(=O)C2CC2)sc2c1CCCC2
COc1ccc(CC(=O)Nc2scc(C)c2C(N)=O)c(OC)c1
CC(=O)Nc1ccc(Br)c(C(=O)Nc2sc3c(c2C(N)=O)CCN(C)C3)c1
CC(C)c1cc(C(N)=O)c(NC(=O)c2cccc(C#N)c2)s1
CN1CCc2c(sc(NC(=O)c3cc4c(Cl)cc(Cl)cc4[nH]3)c2C(N)=O)C1
CN1CCc2c(sc(NC(=O)Cc3ccccc3I)c2C(N)=O)C1
CCC(NC(=O)CCl)C(=O)Nc1sc(C)c(C)c1C(N)=O (stereo unspecified)
NC(=O)c1cc(Cc2ccccc2)sc1NC(=O)/C(F)=C/c1ccccc1
Cc1csc(NC(=O)c2nn(-c3ccccc3)nc2C)c1C(N)=O
NC(=O)c1cc(Cc2ccccc2)sc1NC(=O)CCN1C(=O)C=CC1=O
CC(C)=CC(=O)Nc1sc2c(c1C(N)=O)CCCC2
CC(c1ccccc1)c1cc(C(N)=O)c(NC(=O)c2cccc3c2C(=O)N=N3)s1 (stereo unspecified)
NC(=O)c1cc(-c2ccccc2)sc1NC(=O)C1(c2ccccc2)CC1
NC(=O)c1c(NC(=O)c2cccc(O)c2)sc2c1CCCC2
Cc1csc(NC(=O)c2ccc(S(N)(=O)=O)cc2)c1C(N)=O
NC(=O)c1cc(-c2ccccc2)sc1NC(=O)C(O)c1ccccc1 (stereo unspecified)
Cc1cccc(CC(=O)Nc2sc(C(C)C)cc2C(N)=O)c1
Cc1csc(NC(=O)CS(=O)(=O)c2ccccc2)c1C(N)=O
Cc1csc(NC(=O)CCNC(=O)c2ccccc2)c1C(N)=O
CC(NC(=O)C(C)Nc1sc(-c2ccccc2)cc1C(N)=O)C(=O)O (stereo unspecified)
COc1cc(OC)c(C(=O)Nc2scc(C)c2C(N)=O)cc1OC
CN1CCc2c(sc(NC(=O)Cc3c[nH]c4cccc(Cl)c34)c2C(N)=O)C1
Cc1sc(NC(=O)Cn2cc(C)c(=O)[nH]c2=O)c(C(N)=O)c1C
Cn1cccc1C(=O)Nc1sc2c(c1C(N)=O)CCCC2
Cc1ccc(S(=O)(=O)NCC(=O)Nc2sc3c(c2C(N)=O)CCN(C)C3)cc1
CCN(CC)CCC(=O)Nc1sc(C)c(C)c1C(N)=O
NC(=O)c1c(NC(=O)c2cnccn2)sc2c1CCCC2
NC(=O)c1cc(-c2ccccc2)sc1NC(=O)Cc1cccc(F)c1
CCCCC(C)(C)C(=O)Nc1sc(C(C)C)cc1C(N)=O
Cc1sc(NC(=O)C2(c3ccccc3)CCCC2)c(C(N)=O)c1C
Cc1sc(NC(=O)c2cc(Cl)ccc2Cl)c(C(N)=O)c1C
Cc1cccc(C(=O)Nc2sc(C(C)C)cc2C(N)=O)c1C
COc1ccc(/C=C\C(=O)Nc2sc(C(C)c3ccccc3)cc2C(N)=O)cc1 (stereo unspecified)
CC(C)c1cc(C(N)=O)c(NC(=O)/C=C/c2cccnc2)s1
CC(C)c1cc(C(N)=O)c(NC(=O)/C=C/c2c[nH]cn2)s1
Cc1sc(NC(=O)c2nc3ccccc3nc2O)c(C(N)=O)c1C
CC(C)c1cc(C(N)=O)c(NC(=O)c2ccc(F)cc2)s1
COc1ccc2[nH]c(C)c(CC(=O)Nc3sc4c(c3C(N)=O)CCN(C)C4)c2c1
CC(=O)Nc1ccccc1C(=O)Nc1sc(C(C)c2ccccc2)cc1C(N)=O (stereo unspecified)
CC(=O)NCCCCCC(=O)Nc1sc(C(C)c2ccccc2)cc1C(N)=O (stereo unspecified)
CN1CCc2c(sc(NC(=O)/C=C\C(=O)Nc3ccc(Cl)cc3)c2C(N)=O)C1
Cc1sc(NC(=O)c2ccc(Cl)cc2Cl)c(C(N)=O)c1C
Cc1sc(NC(=O)CCCC(=O)c2ccccc2)c(C(N)=O)c1C
CC(C)c1cc(C(N)=O)c(NC(=O)C2CCCN2C)s1 (stereo unspecified)
COc1cc(C(=O)Nc2sc(Cc3ccccc3)cc2C(N)=O)ccc1O
NC(=O)c1c(NC(=O)c2ccccn2)sc2c1CCCC2
CN(C)c1ccccc1C(=O)Nc1sc(Cc2ccccc2)cc1C(N)=O
CC(C)C(C(=O)O)N(C(N)=O)c1sc(Cc2ccccc2)cc1C(N)=O (stereo unspecified)
Cc1csc(CC(=O)c2c(-c3ccccc3)noc2C)c1C(N)=O
CC(c1ccccc1)c1cc(C(N)=O)c(NC(=O)c2cc(Cl)ccc2O)s1 (stereo unspecified)
CC(=O)c1ccccc1C(=O)Nc1sc(-c2ccccc2)cc1C(N)=O
CC(=O)Nc1ccc(Br)cc1C(=O)Nc1sc2c(c1C(N)=O)CCN(C)C2
Cc1csc(NC(=O)C(C)NC(=O)c2ccccc2)c1C(N)=O (stereo unspecified)
CC(c1ccccc1)c1cc(C(N)=O)c(NC(=O)c2cccc3cccnc23)s1 (stereo unspecified)
Cc1ccc(C)c(C(=O)Nc2sc(C(C)C)cc2C(N)=O)c1
Cc1ccc(C(=O)Nc2sc(C(C)C)cc2C(N)=O)cc1C
NC(=O)c1cc(-c2ccccc2)sc1NC(=O)Cc1ccccc1O
NC(=O)c1cc(Cc2ccccc2)sc1NC(=O)/C=C\c1cccc(O)c1
NC(=O)c1c(NC(=O)Cc2ccccc2)sc2c1CCCC2
NC(=O)c1cc(-c2ccccc2)sc1NC(=O)C(F)c1ccccc1 (stereo unspecified)
NC(=O)c1cc(-c2ccccc2)sc1NC(=O)CCN1CCCCC1
CC(C)c1cc(C(N)=O)c(NC(=O)c2ccc(C#N)cc2)s1
Cc1sc(NC(=O)c2ccc(C(F)(F)F)cc2)c(C(N)=O)c1C
